Measurements published in patent publication US20110190235A1, “BORON-CONTAINING SMALL MOLECULES AS ANTIPROTOZOAL AGENTS” (Anacor Pharmaceuticals, Inc., priority 2009, published 2011).
Values after ≈ are worked out from the molar mass of the structure shown. Like-named read-outs stand apart in the source and are kept apart here.

Experiments:
[1] = test system: TREU 667 strain of T. b. brucei; experiment: Chronic CNS Model; assay type: in vivo, T. b. brucei in mice
Experimental: Mice were infected with 10,000 parasites of the TREU 667 strain of T. b. brucei. Twenty one days post-infection mice were treated with a dose of between 6 and 100 mg/kg of the compound, either BID or QD for 7 days intraperitoneally (IP) or orally (PO). Positive control mice were treated with Diminazene (10 mg/kg, IP) on Day 4 post-infection. Negative control mice were treated with Diminazene (10 mg/kg, PO) on Day 21. Since Diminazene is not able to penetrate the CNS, mice treated at Day 21 are not able to cure the infection. Starting 1 week after the end of treatment, mice are monitored for parasitemia and sacrificed if parasites are detected in the blood. Mice that survive 6 months are considered “cured.”

[2] = L929 cytotoxicity evaluation (resazurin); assay type: cell-based; details: mouse, L929 mouse fibroblast cells; 72 hrs incubation; read-out: Cytotox L-929 IC50
Summary of the method: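 Mouse L929 fibroblasts (1×10^4/mL seeding, attached overnight) were treated 72 h at 37 °C, 5% CO2 with serially diluted compounds in DMSO in D-MEM/10% FBS. Viability read by resazurin fluorescence after 3–4 h (ex 544/em 590 nm); IC50 from sigmoidal fits of single data points.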

[3] = test system: Leishmania donovani strain 1S-CL2D axenic amastigotes; experiment: Leishmania donovani axenic amastigote in vitro drug sensitivity assay (resazurin); assay type: cell-based; details: for Selectivity Index (Ld/L929): L. donovani vs L929; for IC50: Leishmania donovani, 72 hrs incubation
Experimental: All experiments were conducted with the axenic amastigote-form of the following parasite: Leishmania donovani strain 1S-CL2D from Sudan, World Health Organization (WHO) designation: (MHOM/SD/62/1 S-CL2D). Parasites were cultured in T-25 vented cap flasks and kept in humidified incubators at 37° C. and 5% CO2. The axenic parasite culture media was RPMI-1640/MES/pH 5.5 formulated and prepared as described by Debrabant et. al. (International Journal for Parasitology 2004, Volume 34, page 205-217). To ensure log growth phase, axenic amastigotes were sub-cultured at appropriate dilutions every 2-3 days.
Cultures of axenic amastigotes growing in the log phase were passed through a 22 gauge blunt needle to break up the clumps, diluted 1:10 in RPMI-1640/MES medium and counted using hemocytometer to determine parasite concentration. Amastigotes were diluted to 2×10^5/mL in RPMI-1640/MES medium to generate a 2-fold working concentration for assay. Compounds to be tested were serially diluted in DMSO and 0.5 μL added to 50 μL HMI-9 in triplicate 96-well plates using a Biomek NX liquid handler. Parasites from the diluted stock were added to each well (50 μL) using a Multidrop 384 dispenser to give a final concentration of 1.0×10^5/ml parasites in 0.5% for DMSO. Amastigotes were incubated with compounds for 72 hrs at 37° C. with 5% CO2. Resazurin (10 μL of 12.5 mg/ml stock) from Sigma-Aldrich was added to each well and plates were incubated for an additional 2-3 hrs. Assay plates were read using an EnVision plate reader at an excitation wavelength of 544 nm and emission of 590 nm. Triplicate data points were averaged to generate sigmoidal dose response curve and determine IC50 values using XLfit curve fitting software from IDBS (Guildford, UK).

[4] = test system: bloodstream-form trypanosome T. brucei brucei 427 strain; experiment: Trypanosoma brucei brucei high-throughput in vitro drug sensitivity assay (resazurin); assay type: cell-based; details: for Selectivity Index (L929 IC50 / T. b. brucei IC50): T. b. brucei vs L929; for IC50: Trypanosoma brucei, 72 hrs incubation
[5] = Kinetic solubility by nephelometric (light scattering) method; assay type: physicochemical; details: phosphate buffered saline, aqueous buffer, kinetic from dmso stock, PBS pH 7.4
[6] = read-out: L. donovani axenic amastigotes IC50
[7] = read-out: L. donovani axenic amastigotes IC50 (ug/mL)

SMILES	mice with absence of blood parasites through Day 84 ([1]; 75 mg/kg BID for 7 days, starting at Day 21 post-infection) [%]	Day by which all animals relapsed to exhibit blood parasitemia ([1]; treated on Day 21 (10 mg/kg)) [days]	IC50 at 72 h [2] [µg/mL]	Selectivity Index (Ld/L929) [3]	IC50 [3, 6] [nM]	IC50 [3, 7] [µg/mL]	Selectivity Index (L929 IC50 / T. b. brucei IC50) [4]	IC50 ([4]; read-out: T. b. brucei IC50) [nM]	IC50 ([4]; read-out: T.b. brucei IC50) [µg/mL]	solubility at 90 min [5] [µM]
CC1(C)OB(O)c2cc(NC(=O)c3ccc(F)cc3C(F)(F)F)ccc21	100									
N=C(N)c1ccc(/N=N/Nc2ccc(C(=N)N)cc2)cc1 [Diminazene, diminazene, reference compound]		≤ 49								
CC1OB(O)c2cc(NC(=O)c3ccccc3Cl)ccc21 (stereo not drawn) [compound 4, 2-Chloro-N-(1-hydroxy-3-methyl-1,3-dihydro-benzo[c][1,2]oxaborol-6-yl)-benzamide]			1.24 (≈ 4.11 µM)	9	458	0.138	52	80	0.024	> 200
COc1ccc(C(=O)Nc2ccc3c(c2)B(O)OC3C)cc1 (stereo not drawn) [compound 5, N-(1-Hydroxy-3-methyl-1,3-dihydro-benzo[c][1,2]oxaborol-6-yl)-4-methoxy-benzamide]			> 10	>93	360	0.107	>185	182	0.054	100 (≈ 29.7 µg/mL)
